Some test systems named below: IGROV1 ovarian; SK-OV-3 ovarian; BT-549 breast; A498 renal; SF-295 CNS; MCF7 breast; HCT-116 colon; SN12C renal; LOX IMVI melanoma; RPMI-8226 leukemia.
Holding throughout (test): NCI-60 cell line screen, 48 h

The structures appear in SMILES notation.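 In this assay, cells in 96-well plates receive the compound at five concentrations for 48 hours. Endpoints are linearly interpolated between the surrounding concentrations. The concentration for 50% growth inhibition is given as GI50. Definition used: TGI = concentration required for complete inhibition of growth.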 Bounds are passed on as bounds.

Turning to `C1=C2C3=[N+](CCCCC3)CC2Cc2ccsc21` (configuration not stated), the TGI with IGROV1 ovarian, in the experiment on SK-OV-3 ovarian, in the experiment with BT-549 breast, with A498 renal, in the experiment with SF-295 CNS and in the experiment on MCF7 breast was above 100 µM throughout. The TGI with HCT-116 colon, in the experiment with SN12C renal and in the experiment on LOX IMVI melanoma was above 100 µM each time.

As for `CC(C)C(=O)C(C)(C)CCc1ccccn1`, the TGI with IGROV1 ovarian, with RPMI-8226 leukemia, with SK-OV-3 ovarian, with BT-549 breast, in the experiment with A498 renal and in the experiment with SF-295 CNS was above 100 µM throughout. The TGI in the experiment with MCF7 breast, with HCT-116 colon, in the experiment on SN12C renal and in the experiment on LOX IMVI melanoma was above 100 µM each time.

On to `Cc1cc(C)c2c(=O)cc(-c3cccc(F)c3)[nH]c2n1`, for which the TGI in the experiment on RPMI-8226 leukemia is above 55.1 µM; in the experiment with SK-OV-3 ovarian, above 100 µM; in the experiment with BT-549 breast it was above 22 µM; in the experiment on A498 renal it was above 26.9 µM; in the experiment with SF-295 CNS it was 0.199 µM; in the experiment with MCF7 breast, 2.16 µM. In addition, the TGI in the experiment with HCT-116 colon turned out to be 0.433 µM; in the experiment on SN12C renal it was 20.3 µM; in the experiment with LOX IMVI melanoma it was 22 µM.

As for `S=C(N/N=C\C(=N/NC(=S)N1CCCCC1)c1ccccc1)N1CCCCC1`, the TGI was 3.45 µM with IGROV1 ovarian; above 100 µM in the experiment with RPMI-8226 leukemia; 3.37 µM in the experiment on SK-OV-3 ovarian; 3.57 µM in the experiment on BT-549 breast; 3.18 µM with A498 renal; 3.91 µM with SF-295 CNS. Moreover, the TGI in the experiment with MCF7 breast was above 22.4 µM; in the experiment with HCT-116 colon it was 6.53 µM; in the experiment with SN12C renal, 3.51 µM; in the experiment with LOX IMVI melanoma it was above 100 µM.

For the compound `c1cncc(CC2(c3cc4ccccc4[nH]3)OCCO2)c1`, the TGI in the experiment with IGROV1 ovarian, in the experiment with SK-OV-3 ovarian, with BT-549 breast, in the experiment with A498 renal, in the experiment on SF-295 CNS and in the experiment with MCF7 breast was above 100 µM throughout. Further, the TGI in the experiment with HCT-116 colon, with SN12C renal and in the experiment with LOX IMVI melanoma was above 100 µM in each case.

On to `CCOc1ccc(Nc2nc(N)nc(N)c2N)cc1`, for which the TGI was 28.6 µM in the experiment with IGROV1 ovarian; 38.1 µM in the experiment with RPMI-8226 leukemia; above 100 µM in the experiment on SK-OV-3 ovarian; 76.6 µM in the experiment with BT-549 breast; above 100 µM in the experiment with A498 renal; 45.8 µM in the experiment with SF-295 CNS. Also, the TGI with MCF7 breast was 38.1 µM; with HCT-116 colon it was above 100 µM; in the experiment with LOX IMVI melanoma, above 100 µM.

For `C/C=C(/C)C(=O)OC1CC(C)[C@H]2CC(=O)C(C)=C2CC1C(C)(C)OC(C)=O` (some centres not stated), the TGI in the experiment on IGROV1 ovarian is above 100 µM; with RPMI-8226 leukemia, 60.8 µM; with BT-549 breast, 85.4 µM; in the experiment on A498 renal, 41.1 µM; in the experiment on SF-295 CNS it was above 100 µM; in the experiment on MCF7 breast, above 100 µM. For the same compound, the TGI in the experiment on HCT-116 colon was 40.7 µM; with SN12C renal, above 100 µM; with LOX IMVI melanoma, 36.2 µM.

Regarding `Cn1c(=O)c(-c2ccccc2)c(O)c2ccccc21`, the TGI with IGROV1 ovarian, with RPMI-8226 leukemia, in the experiment on BT-549 breast, with A498 renal, in the experiment on SF-295 CNS and in the experiment on MCF7 breast was above 100 µM throughout. Also, the TGI in the experiment with HCT-116 colon, in the experiment with SN12C renal and in the experiment on LOX IMVI melanoma was above 100 µM in each case.

As to `CCCCC1=C(C(=O)N2CCOCC2)C2(OCCO2)C1=O`, the TGI is 37 µM in the experiment on IGROV1 ovarian; above 100 µM in the experiment with SK-OV-3 ovarian; 78.8 µM in the experiment with BT-549 breast; 62.1 µM with A498 renal; above 100 µM in the experiment on SF-295 CNS; above 100 µM in the experiment on MCF7 breast. Further, the TGI with HCT-116 colon is 48.6 µM; in the experiment with SN12C renal, 32.7 µM; in the experiment on LOX IMVI melanoma, 25.4 µM.

`COc1ccc(Nc2nc(N)c(C(=O)c3c[nH]c4ccccc34)s2)cc1`: the TGI in the experiment with IGROV1 ovarian is above 100 µM; in the experiment with SK-OV-3 ovarian it was above 100 µM; in the experiment with BT-549 breast, above 40.5 µM; with A498 renal, 16.3 µM; in the experiment with SF-295 CNS, above 100 µM; in the experiment with MCF7 breast it was 18.8 µM. Further, the TGI was 6.58 µM in the experiment with HCT-116 colon, above 100 µM in the experiment with SN12C renal and above 100 µM with LOX IMVI melanoma.

In the case of `COc1cccc2c1C(=O)c1c(O)c3c(c(O)c1C2=O)C[C@H](O)C[C@@H]3OC1CC(N)C(O)C(C)O1` (some centres not stated), the TGI worked out at 12.4 µM with IGROV1 ovarian; 8.8 µM in the experiment on RPMI-8226 leukemia; 14.8 µM in the experiment with SK-OV-3 ovarian; 16 µM in the experiment on BT-549 breast; 4.5 µM in the experiment on A498 renal; 7.35 µM in the experiment with SF-295 CNS. For the same compound, the TGI in the experiment with MCF7 breast amounted to 21.2 µM; in the experiment with HCT-116 colon, 7.88 µM; with LOX IMVI melanoma, 2.92 µM.

As for `CC[C@H](Nc1nc(C)nc(N)c1C#N)c1nc2cccc(NCc3ccc(C(=O)NO)cc3)c2c(=O)n1-c1ccccc1`, the GI50 was 2.03 µM in the experiment on RPMI-8226 leukemia; 1.65 µM in the experiment with SK-OV-3 ovarian; 1.93 µM in the experiment on BT-549 breast; 1.44 µM in the experiment on A498 renal; 1.66 µM in the experiment on SF-295 CNS; 2.07 µM in the experiment on MCF7 breast. For the same compound, the GI50 in the experiment on HCT-116 colon was 1.01 µM; in the experiment with SN12C renal it was 1.65 µM; in the experiment on LOX IMVI melanoma, 1.65 µM. The TGI with RPMI-8226 leukemia turned out to be 5.26 µM; in the experiment on SK-OV-3 ovarian it was 3.13 µM; with BT-549 breast, 4.56 µM; with A498 renal, 2.93 µM; in the experiment with SF-295 CNS, 3.14 µM; with MCF7 breast it was 5.89 µM. The results for the TGI in the experiment on HCT-116 colon, in the experiment on SN12C renal and in the experiment on LOX IMVI melanoma were 2.5 µM, 3.92 µM and 3.04 µM, respectively.

Take `COc1cc(C(=O)Oc2ccc3c(c2)OCO3)cc(OC)c1OC`: the TGI in the experiment with IGROV1 ovarian, in the experiment with RPMI-8226 leukemia, in the experiment with SK-OV-3 ovarian, with BT-549 breast, in the experiment with A498 renal and in the experiment on SF-295 CNS was above 100 µM in each case. Also, the TGI in the experiment with MCF7 breast, in the experiment on SN12C renal and with LOX IMVI melanoma was above 100 µM each time.

With `C=C1OC(c2ccccc2NC)=NC12CCCCC2`, the TGI in the experiment with IGROV1 ovarian, in the experiment with SK-OV-3 ovarian, in the experiment with BT-549 breast, with A498 renal, with SF-295 CNS and in the experiment with MCF7 breast was above 100 µM throughout. Moreover, the TGI in the experiment on HCT-116 colon, in the experiment on SN12C renal and in the experiment on LOX IMVI melanoma was above 100 µM in each case.

(Values after PubChem BioAssay (NCI).)
